Like-named read-outs stand apart in the source and are kept apart here.
Experiments:
[1] = system: human coronary vascular smooth muscle cells (CASMCs); assay: Inhibition experiment of the proliferation of CASMCs (WST-1 formazan assay, absorbance 450 nm); type: cell-based
Procedure: The CASMCs were purchased from Clonetics Co., and cultured at 37° C., 5% CO2 using an attached culture kit (SmGM-2) in a culture medium comprising 5% fetal bovine serum (FBS), 2 ng/ml human basic fibroblast growth factor (b-FGF), 5 μg/ml bovine insulin, and 0.5 ng/ml human epidermal growth factor.
The CASMCs were cultured in a 96-well plate as in the Example 1 so that about 70˜80% of the area of each well was occupied by the cells, then put into a nutrition-depletion state for 24 hours under a non-serum condition. Roxythromycin (RXM) was then added as a test compound to the culture medium to give various concentration (0.1, 1.0, 10, 100 μg/ml) and the cells were cultured further for 24˜72 hours. The degree of growth of the cells was assayed at each elapsed time by formazan-formation coloring test with WST-1 agent using Takara Premix WST-1 Cell Proliferation Assay System Kit. Actually, Premix WST-1 was added 10 μl each followed by detection of absorbance at 450 nm by means of a plate reader.
The same experiments were conducted using other anti-bacterial and anti-fungal agents.

[2] = system: human coronary vascular smooth muscle cells (CASMCs); assay: Cell cycle analysis of CASMCs by flow cytometry (propidium iodide); type: cell-based; settings: RXM 10 μg/ml, FIG. 3
Procedure: A further experiment was done using a flow cytometry in order to study when the RXM's direct inhibition activity of the proliferation of CASMCs was effected in a cell cycle.
The flow cytometry method was carried out in accordance with the following procedures and conditions.
The cells were fixed with 70% ethanol for 30 min and incubated with RNase (5 μg/ml) for 30 min. They were then incubated with propidium iodide (10 μg/ml) for 30 min, followed by detection with FACScan (Becton Dickinson Co.).
The transition ratio of the cell cycle was obtained by DNA histogram analysis with ModFit LT software, and shown as % for the total cells.

[3] = system: phosphorylated Rb (retinoblastoma gene products); assay: Western blot analysis of phosphorylated Rb in mitogen-stimulated CASMCs; type: cell-based, human; settings: RXM 1-10 μg/ml, FIG. 4
Procedure: It was analyzed whether or not the RXM's inhibition of the stage from G1 phase to S phase of CASMCs was based on the inhibition of phophorylation of Rb (retinoblastoma gene products) that was supposed to be an essential intracellular molecule for transition in the cell cycle. The analysis was carried out using phosphorylated Rb as a marker by means of Western blot with a monoclonal antibody specifically recognizing phosphorylated Rb (Cell Signaling Technology Co.).
As a level of phosphorylated Rb was so low in normal conditions that it could not be detected by Western blot under normal conditions, the analysis was actually done after 5% FBS, 2 ng/ml human b-FGF, 5 μg/ml bovine insulin, and 0.5 ng/ml human epidermal growth factor had been added to the culture medium in order to stimulate CASMCs with mitogens up to an activated state and to increase an amount of the expressed phosphorylated Rb.
Western blot was carried out as follows. After the completion of SDS gel electrophoresis, the resulting bands were transferred to PVDF membrane, blocked with dry milk, incubated successively with a first antibody (anit-phosphorylated Rb rabbit antibody) and a labeled second antibody (anti-rabbit IgG mouse antibody), developed using alkaline phosphatase immuno blot kit and determined by means of a densitometer. […]

CDKIs-p27 = assay: Western blot analysis of CDKIs-p27 expression in mitogen-stimulated CASMCs; type: cell-based, human; settings: RXM 1-10 μg/ml, under stimulation with the mitogens, FIG. 5
Procedure: (§1) Western blot was carried out as follows. After the completion of SDS gel electrophoresis, the resulting bands were transferred to PVDF membrane, blocked with dry milk, incubated successively with a first antibody (anit-phosphorylated Rb rabbit antibody) and a labeled second antibody (anti-rabbit IgG mouse antibody), developed using alkaline phosphatase immuno blot kit and determined by means of a densitometer. The operating conditions in these steps were standard ones known to those skilled in the art.
(§2) In order to examine what kind of modification of intracellular molecules was responsible for the RXM's inhibition of the production of phosphorylated Rb in CASMCs, the analysis was carried out by means of Western blot in the same conditions as in Example 5, focusing attention on […] (CDKIs) that was known to control the intracellular molecules, especially on its major molecules, CDKIs-p27 and CDKIs-p21.
(§3) As an expresssion level of both CDKIs-p27 and CDKIs-p21 was so low in a normal cell that it could not be detected by Western blot, the analysis was actually done on the cells activated after stimulation with the mitogens in the same way as in Example 5.

CDKIs-p21 = assay: Western blot analysis of CDKIs-p21 expression in mitogen-stimulated CASMCs; type: cell-based, human; settings: RXM 1-10 μg/ml, under stimulation with the mitogens, FIG. 5
Procedure: as §1, §2, §3

[4] = background statement; cited from earlier work
mouse = settings: cited from earlier work
[5] = 50 μg/ml, any time between 24 and 72 hours, FIG. 2

Compound: C[C@@H]1[C@H](O)[C@@H](C)/C=C/C=C/C=C/C=C/C=C/C=C/C=C/[C@H](O[C@@H]2O[C@H](C)[C@@H](O)[C@H](N)[C@@H]2O)C[C@@H]2O[C@](O)(C[C@@H](O)C[C@@H](O)[C@H](O)CC[C@@H](O)C[C@@H](O)CC(=O)O[C@H]1C)C[C@H](O)[C@H]2C(=O)O [Amphotericin B]
- inhibition of the proliferation of CASMCs ([1]; 50 ng/ml, any time between 24 and 72 hours, FIG. 2): none

Compound: CC1(C)S[C@@H]2[C@H](NC(=O)[C@H](N)c3ccccc3)C(=O)N2[C@H]1C(=O)O [Ampicilin]
- inhibition of the proliferation of CASMCs [1, 5]: none

Compound: CC[C@H]1OC(=O)[C@H](C)[C@@H](O[C@H]2C[C@@](C)(OC)[C@@H](O)[C@H](C)O2)[C@H](C)[C@@H](O[C@@H]2O[C@H](C)C[C@H](N(C)C)[C@H]2O)[C@](C)(O)C[C@@H](C)/C(=N\OCOCCOC)[C@H](C)[C@@H](O)[C@]1(C)O [RXM, roxithromycin]
- inhibition of the proliferation of CASMCs ([1]; RXM 1 μg/ml, any time during the observation (24-72 hours), vs RXM non-added group, FIG. 1A): inhibited the proliferation of CASMCs to a statistically significant level
- inhibition of the proliferation of CASMCs ([1]; RXM 10 μg/ml, any time during the observation (24-72 hours), vs RXM non-added group, FIG. 1A): inhibited the proliferation of CASMCs to a statistically significant level
- inhibition of the proliferation of CASMCs ([1]; range of 1-100 μg/ml, drug-dependence manner, vs RXM non-added group, FIG. 1B): inhibited the proliferation of CASMCs to a statistically significant level in a drug-dependence manner
- inhibition of the stage from G1 phase to S phase in a cell cycle [2]: inhibited a stage from G1 phase to S phase in a cell cycle to a statistically significant level
- inhibition of the stage from S phase to G2/M phase [2]: did not inhibit
- production of phosphorylated Rb in CASMCs [3]: clearly inhibited
- expression of CDKIs-p27 in CASMCs (CDKIs-p27): clearly increased in a RXM concentration-dependency manner
- expression of CDKIs-p21 (CDKIs-p21): no clear difference was observed

Compound: CO[C@H]1C[C@@H]2CC[C@@H](C)[C@@](O)(O2)C(=O)C(=O)N2CCCC[C@H]2C(=O)O[C@H]([C@H](C)C[C@@H]2CC[C@@H](O)[C@H](OC)C2)CC(=O)[C@H](C)/C=C(\C)[C@@H](O)[C@@H](OC)C(=O)[C@H](C)C[C@H](C)/C=C/C=C/C=C/1C [Rapamycin, rapamycin]
- cytotoxicity [4]: strong cytotoxicity

Compound: CC[C@H]1OC(=O)[C@H](C)[C@@H](O[C@H]2C[C@@](C)(OC)[C@@H](O)[C@H](C)O2)[C@H](C)[C@@H](O[C@@H]2O[C@H](C)C[C@H](N(C)C)[C@H]2O)[C@](C)(O)C[C@@H](C)C(=O)[C@H](C)[C@@H](O)[C@]1(C)O.Cl [erythromaycin hydrochloride, erythromaycin]
- Acute toxicity (mouse LD50) (mouse; interperitoreal): 490 ± 30.4 mg/kg
- Acute toxicity (mouse LD50) (mouse; vein): 425.6 ± 15.7 mg/kg

Compound: Gentamicin
- inhibition of the proliferation of CASMCs [1, 5]: none
